# Results: patent US20060211651A1, “Persulfated oligosaccharide acting on selectins and chemokine” (Taisho Pharmaceutical Co., Ltd., priority 2002, published 2006)
# Tests used:
# [1] = system: ACHN cells; experiment: Sulfation of versican in [35S]sulfate-labeled ACHN cells; assay type: cell-based; settings: 30 mM sodium chlorate, relative to the case without treatment
# Experimental: (§1) ACHN cells were pre-incubated at 37° C. for 6 hours in RPMI 1640 containing 10% by weight of bovine fetal serum in the presence or absence of 30 mM sodium chlorate. A confluent monolayer of the resulting ACHN cells was labeled by incubation for 18 hours in the presence or absence of 30 mM sodium chlorate, in a medium of either of:
# (i) Eagle minimum basal medium SMEM [sulfate-free; manufactured by BioWhittaker] containing 2% by weight of dialyzed bovine fetal serum in the presence of 0.2 mCi/ml [^35S]Na2SO4 [trade name: Sulfer-35; manufactured by ICN Radiochemicals], or
# (ii) methionine-free RPMI 1640 medium [manufactured by Invitrogen] containing 2% by weight of dialyzed bovine fetal serum in the presence of 0.2 mCi/ml [^35S]-methionine [manufactured by ICN Radiochemicals].
# Immunoprecipitation was performed as follows, according to the method described in the publication of Kawashima, H. et al. [Int. Immunol., 11, 393-405 (1999); all teachings of which are hereby incorporated by reference] except that beads were washed using buffer A (0.05% Tween 20, 20 mM HEPES-NaOH, 0.15M NaCl, 1 mM CaCl2, 1 mM MgCl2, pH6.8). […]
# (§2) Thereafter, the beads were washed with the buffer A, to obtain precipitates. The resulting precipitates were subjected to SDS-agarose-PAGE, and thereafter, signal ascribed to ^35S label on a gel was detected by autoradiography.
# [2] = system: P-selectin-Ig; experiment: Immunoprecipitation of versican from ACHN conditioned medium with P-selectin-Ig; assay type: binding; settings: 30 mM sodium chlorate; ACHN cells; FIG. 1
# Experimental: as §1
# (§3) Immunoprecipitation was performed as follows, according to the method described in the publication of Kawashima, H. et al. [Int. Immunol., 11, 393-405 (1999); all teachings of which are hereby incorporated by reference] except that beads were washed using buffer A (0.05% Tween 20, 20 mM HEPES-NaOH, 0.15M NaCl, 1 mM CaCl2, 1 mM MgCl2, pH6.8).
# (§4) Each of the antibody and the Ig chimera shown in FIG. 1 (equivalent to 10 μg) was coupled to Protein A-Sepharose column (equivalent to 10 μL) by a conventional method, to obtain antibody-coupled Protein A-Sepharose or Ig chimera-coupled Protein A-Sepharose. […]
# as §2
# [3] = target: T1, L-selectin-Ig (Homo sapiens, UniProt P14151); experiment: Immunoprecipitation of versican from ACHN conditioned medium with L-selectin-Ig; assay type: binding; settings: 30 mM sodium chlorate; ACHN cells; FIG. 1
# T1 construct: purchased R & D Systems Inc
# T1 sequence (P14151 with tags, fused parts or gaps limits assumed): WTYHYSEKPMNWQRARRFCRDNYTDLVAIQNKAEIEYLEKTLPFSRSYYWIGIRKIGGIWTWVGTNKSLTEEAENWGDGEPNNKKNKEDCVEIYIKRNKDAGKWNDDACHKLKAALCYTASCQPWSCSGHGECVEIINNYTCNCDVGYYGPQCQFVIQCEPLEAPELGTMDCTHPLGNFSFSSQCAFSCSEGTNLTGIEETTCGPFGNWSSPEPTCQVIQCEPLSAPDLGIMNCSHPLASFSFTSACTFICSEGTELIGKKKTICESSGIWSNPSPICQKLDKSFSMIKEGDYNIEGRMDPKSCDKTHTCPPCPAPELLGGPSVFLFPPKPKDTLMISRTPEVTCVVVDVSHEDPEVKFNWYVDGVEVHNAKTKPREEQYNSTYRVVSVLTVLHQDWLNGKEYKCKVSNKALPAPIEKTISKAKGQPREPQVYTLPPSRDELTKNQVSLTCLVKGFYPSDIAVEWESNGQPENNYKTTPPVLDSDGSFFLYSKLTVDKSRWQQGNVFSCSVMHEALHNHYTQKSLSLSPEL
# Experimental: as §1, §3, §4, §2
# [4] = system: CD44-Ig; experiment: Immunoprecipitation of versican from ACHN conditioned medium with CD44-Ig; assay type: binding, human; settings: 30 mM sodium chlorate; ACHN cells; FIG. 1
# Experimental: as §1, §3, §4, §2
smiles,measurement,setting,value
[Na+].[O-][Cl+2]([O-])[O-] [sodium chlorate],inhibition of sulfation,[1],more than 90%
same,effect of treatment on interaction between versican and P-selectin-Ig,[2],inhibited
same,effect of treatment on interaction between versican and L-selectin-Ig,[3],inhibited
same,effect of treatment on interaction between versican and CD44-Ig,[4],not inhibited
